From patent publication US9943506B2, “BCL6 inhibitors as anticancer agents” (Cornell University, priority 2013, dated 2018)
Read-outs that look alike come from different tables or passages of the source.

How the values were obtained:
Ly7 DLBCL cells = test: Growth inhibition of DLBCL cells, Ly7; format: cell-based
Experimental: (§1) 50,000 cells per well were treated for 48 hours with different concentrations of the compounds in 96 well plates, using DMSO as a control. Then, viability was determined with Cell Titer Blue™ (Promega) and growth inhibition was calculated as the percentage of viable cells with respect to cells treated with DMSO alone. GI50 values were determined by dose-response curves.
(§2) 293T cells were grown in Dulbecco's modified Eagles medium supplemented with 10% fetal bovine serum (FBS) (Gemini Bio-Products, Woodland, Calif.) and 1% penicillin-streptomycin. DLBCL cell lines OCI-Ly1, OCI-Ly1-B50, OCI-Ly7, OCI-Ly10 and OCI-Ly19 were grown in 80% Iscove's medium, 20% FBS and penicillin G/streptomycin. DLBCL cell lines Toledo, Farage, SU-DHL4, DOHH-2, SC-1, RCK8, TMD8, HBL-1, Ly3, Karpas 422 and SU-DHL6 were cultured in 90% RPMI medium, 10% FBS, 2 mM glutamine, 10 mM Hepes and penicillin G/streptomycin. All cell lines were cultured at 37° C. in a humidified atmosphere of 5% CO2.

BCL6-BTB = BCL6-BTB (Homo sapiens, UniProt P41182); test: MicroScale Thermophoresis binding to BCL6-BTB
Experimental: BCL6 is also required for normal development of germinal center (GC) B-cells.
Recombinant BCL6-BTB was labeled using the RED-NHS Labeling kit (NanoTemper Technologies). […] The label:protein ratio was determined using photometry at 650 nm and Bradford reagent. […] The labeled BCL6-BTB was adjusted to 400 nM with PBS (Thermo) buffer supplemented with 0.05% Tween-80 (Fisher scientific). […] After 10 min incubation, approximately 4 μL of each solution was filled into Monolith NT Standard Treated Capillaries (NanoTemper Technologies GmbH). Thermophoresis was measured using a Monolith NT.115 instrument (NanoTemper Technologies GmbH) at an ambient temperature of 25° C. with 5 s/30 s/5 s laser off/on/off times, respectively. Instrument parameters were adjusted with 90% LED power and 40% MST power. Data of three independent experiments were analyzed (NT.Analysis software version 1.5.41, NanoTemper Technologies) using the signal from Thermophoresis.

SUDHL6 DLBCL cells = test: Growth inhibition of DLBCL cells, SUDHL6; format: cell-based; conditions: Homo sapiens, SU-DHL-6
Experimental: as §1, §2

Toledo DLBCL cells = test: Growth inhibition of DLBCL cells, Toledo; format: cell-based; conditions: Homo sapiens
Experimental: as §1, §2

Ly1B50 DLBCL cells = test: Growth inhibition of DLBCL cells, Ly1B50; format: cell-based; conditions: Table 2; BCL-6 independent; 48 hours
Experimental: as §1, §2

Ly3 DLBCL cells = test: Growth inhibition of DLBCL cells, Ly3; format: cell-based
Experimental: as §1, §2

Ly10 DLBCL cells = test: Growth inhibition of DLBCL cells, Ly10; format: cell-based; conditions: Table 2, BCL-6 dependent, 48 hours
Experimental: as §1, §2

Karpas 422 DLBCL cells = test: Growth inhibition of DLBCL cells, Karpas 422; format: cell-based; conditions: Homo sapiens, read-out: GI50 Karpas 422
Experimental: as §1, §2

WSU-DLCL2 DLBCL cells = test: Growth inhibition of DLBCL cells, WSU-DLCL2; format: cell-based; conditions: Homo sapiens, WSUDLCL2; Table 8; Bcl-6 independent
Experimental: as §1

[1] = Table 13, BCL6 dependent, read-out: GI50 SUDHL6
[2] = Table 2, BCL-6 dependent, 48 hours
[3] = Table 2, BCL-6 dependent, 48 hours, read-out: GI50 SUDH6
[4] = 48 h, Table 2, BCL-6 independent
[5] = Table 2, BCL-6 independent, 48 hours
[6] = Table 7, BCL6 dependent, read-out: GI50 SUDHL6
[7] = Table 8, Bcl-6 dependent, read-out: GI50 SUDH6

Structure (SMILES): Clc1ccc2[nH]c(SCc3ccccc3)nc2c1 [Compound 1057]
- GI50 (Ly7 DLBCL cells; Table 13, BCL6 dependent): > 125 µM
- Kd (BCL6-BTB; Table 13): 87 ± 12 µM
- GI50 (SUDHL6 DLBCL cells; [1]): > 125 µM
- GI50 (Toledo DLBCL cells; Table 13, BCL6 independent): > 125 µM

Structure (SMILES): O=[N+]([O-])c1ccc2[nH]c(SCc3ccccc3)nc2c1 [Compound 1061]
- GI50 (Ly7 DLBCL cells; Table 13, BCL6 dependent): 60 µM
- Kd (BCL6-BTB; Table 13): 180 ± 36 µM
- GI50 (SUDHL6 DLBCL cells; [1]): 40 ± 10 µM
- GI50 (Toledo DLBCL cells; Table 13, BCL6 independent): > 125 µM

Structure (SMILES): CCOc1ccc2[nH]c(SCc3ccccc3)nc2c1 [Compound 1063]
- GI50 (Ly7 DLBCL cells; Table 13, BCL6 dependent): > 125 µM
- Kd (BCL6-BTB; Table 13): 315 ± 24 µM
- GI50 (SUDHL6 DLBCL cells; [1]): > 125 µM
- GI50 (Toledo DLBCL cells; Table 13, BCL6 independent): > 125 µM

Structure (SMILES): O=C(O)CN1C(=O)/C(=C2/C(=O)Nc3c(Cl)cc(Cl)cc32)SC1=S [Compound 2039, (Z)-2-(5-(5,7-Dichloro-2-oxoindolin-3-ylidene)-4-oxo-2-thioxothiazolidin-3-yl)acetic acid]
- GI50 (Ly1B50 DLBCL cells): > 40 µM
- GI50 (Ly3 DLBCL cells; [2]): > 40 µM
- GI50 (Ly7 DLBCL cells; 48 h, Table 2, BCL-6 dependent): > 40 µM
- GI50 (Ly10 DLBCL cells): > 40 µM
- GI50 (SUDHL6 DLBCL cells; [3]): > 40 µM
- GI50 (Toledo DLBCL cells; [4]): > 40 µM
- GI50 (Karpas 422 DLBCL cells; [5]): > 40 µM

Structure (SMILES): O=C(O)CN1C(=O)/C(=C2/C(=O)Nc3ccc(Br)cc32)SC1=S [Compound 2041, (Z)-2-(5-(5-Bromo-2-oxoindolin-3-ylidene)-4-oxo-2-thioxothiazolidin-3-yl)acetic acid]
- GI50 (Ly1B50 DLBCL cells): > 40 µM
- GI50 (Ly3 DLBCL cells; [2]): > 40 µM
- GI50 (Ly7 DLBCL cells; 48 h, Table 2, BCL-6 dependent): > 40 µM
- GI50 (Ly10 DLBCL cells): > 40 µM
- GI50 (SUDHL6 DLBCL cells; [3]): > 40 µM
- GI50 (Toledo DLBCL cells; [4]): > 40 µM
- GI50 (Karpas 422 DLBCL cells; [5]): > 40 µM

Structure (SMILES): O=C(CN1C(=O)C(=O)c2cc(Cl)ccc21)OCc1ccccc1 [Compound 2071]
- GI50 (Ly3 DLBCL cells; Table 8, Bcl-6 dependent): > 40 µM
- GI50 (Ly7 DLBCL cells; Table 7, BCL6 dependent): 53 µM
- GI50 (Ly7 DLBCL cells; Table 8, Bcl-6 dependent): 26 ± 1 µM
- GI50 (WSU-DLCL2 DLBCL cells): > 40 µM
- GI50 (SUDHL6 DLBCL cells; [6]): 35 µM
- GI50 (SUDHL6 DLBCL cells; [7]): 10 ± 1 µM
- GI50 (Toledo DLBCL cells; Table 7, BCL6 independent): > 125 µM
- GI50 (Toledo DLBCL cells; Table 8, Bcl-6 independent): > 40 µM
- GI50 (Karpas 422 DLBCL cells; Table 8, Bcl-6 independent): > 40 µM

Structure (SMILES): O=C(CN1C(=O)C(=O)c2cc(F)ccc21)OCc1ccccc1 [Compound 2073]
- GI50 (Ly3 DLBCL cells; Table 8, Bcl-6 dependent): > 40 µM
- GI50 (Ly7 DLBCL cells; Table 7, BCL6 dependent): 30 µM
- GI50 (Ly7 DLBCL cells; Table 8, Bcl-6 dependent): 36 ± 7 µM
- GI50 (WSU-DLCL2 DLBCL cells): > 40 µM
- GI50 (SUDHL6 DLBCL cells; [6]): 30 µM
- GI50 (SUDHL6 DLBCL cells; [7]): 17 ± 1 µM
- GI50 (Toledo DLBCL cells; Table 7, BCL6 independent): 40 µM
- GI50 (Toledo DLBCL cells; Table 8, Bcl-6 independent): > 40 µM
- GI50 (Karpas 422 DLBCL cells; Table 8, Bcl-6 independent): > 40 µM

Structure (SMILES): O=C(O)CCN1C(=O)/C(=C2/C(=O)N(CC(=O)OCc3ccccc3)c3ccc(F)cc32)SC1=S [Compound 2097]
- GI50 (Ly3 DLBCL cells; Table 8, Bcl-6 dependent): > 30 µM
- GI50 (Ly7 DLBCL cells; Table 8, Bcl-6 dependent): > 30 µM
- GI50 (WSU-DLCL2 DLBCL cells): > 30 µM
- GI50 (SUDHL6 DLBCL cells; [7]): > 30 µM
- GI50 (Toledo DLBCL cells; Table 8, Bcl-6 independent): > 30 µM
- GI50 (Karpas 422 DLBCL cells; Table 8, Bcl-6 independent): > 30 µM

Structure (SMILES): O=C(O)CCN1C(=O)/C(=C2/C(=O)N(CC(=O)OCc3ccccc3)c3ccc(Cl)cc32)SC1=S [Compound 2099]
- GI50 (Ly3 DLBCL cells; Table 8, Bcl-6 dependent): > 30 µM
- GI50 (Ly7 DLBCL cells; Table 5, BCL6 dependent): 65 µM
- GI50 (Ly7 DLBCL cells; Table 8, Bcl-6 dependent): > 30 µM
- GI50 (WSU-DLCL2 DLBCL cells): > 30 µM
- Kd (BCL6-BTB; Table 5): 5.5 ± 0.7 µM
- GI50 (SUDHL6 DLBCL cells; Table 5, BCL6 dependent, read-out: GI50 SUDHL6): 30 ± 7 µM
- GI50 (SUDHL6 DLBCL cells; [7]): > 30 µM
- GI50 (Toledo DLBCL cells; Table 5, BCL6 independent): 75 µM
- GI50 (Toledo DLBCL cells; Table 8, Bcl-6 independent): > 30 µM
- GI50 (Karpas 422 DLBCL cells; Table 8, Bcl-6 independent): > 30 µM

Structure (SMILES): O=C(O)CCN1C(=O)/C(=C2/C(=O)N(CC(=O)OCc3ccccc3)c3ccc(Br)cc32)SC1=S [Compound 2101]
- GI50 (Ly3 DLBCL cells; Table 8, Bcl-6 dependent): > 30 µM
- GI50 (Ly7 DLBCL cells; Table 8, Bcl-6 dependent): > 30 µM
- GI50 (WSU-DLCL2 DLBCL cells): > 30 µM
- GI50 (SUDHL6 DLBCL cells; [7]): > 30 µM
- GI50 (Toledo DLBCL cells; Table 8, Bcl-6 independent): > 30 µM
- GI50 (Karpas 422 DLBCL cells; Table 8, Bcl-6 independent): > 30 µM
